From patent US20190231757A1, “COMBINATION OF SPLEEN TYROSINE KINASE INHIBITORS AND OTHER THERAPEUTIC AGENTS” (Takeda Pharmaceutical Company Limited, priority 2016, published 2019)
Where “and” joins values, the source holds several entries; their conditions need not be identical. Equal entries are not always repeated. Structures can show the parent of a compound that is named as a salt.

Legend:
[1] = system: A20 mouse syngeneic B-cell lymphoma; assay: Antitumor activity in Balb/c mice bearing A20 syngeneic B-cell lymphoma (Example 1); type: in vivo
TMD8 DLBCL xenografts [2] = assay: Antitumor activity in CB17 SCID mice bearing TMD8 DLBCL xenografts, bendamustine combination (Example 3); type: in vivo, mouse; settings: bendamustine 1 mg/kg IV BIW, alone or combined, Day 14
Ly19 xenografts = assay: Antitumor activity in SCID mice bearing Ly19 xenografts, bendamustine combination (Example 4); type: in vivo, mouse; settings: alone or combined
OCI-LY10 xenografts = assay: Antitumor activity in CB17 SCID mice bearing OCI-LY10 xenografts, gemcitabine combination (Example 7); type: in vivo, mouse; settings: Day 21, alone or combined
Protocol: Tumor growth inhibition was calculated on Day 21 of the study. The last measurement was taken on Day 42 of the study.
(§1) Experimental design: Female CB17 SCID mice (Taconic Biosciences; weight at treatment start was 20 g) were inoculated subcutaneously in the flank (cell suspension) with 4.0×10^6 OCI-Ly10 cells. Tumor volume was calculated using the formula V=W^2×L/2, where V=volume, W=width and L=length of the tumor. When the mean tumor volume reached approximately 199 mm^3, the animals were randomized into 6 treatment groups (n=8/group). […] Tumor growth and body weight were measured twice per week. Tumor growth inhibition and body weight change were calculated on Day 21 of treatment.
(§2) Statistical analysis: The differences in the tumor growth trends over time between pairs of treatment groups were assessed using linear mixed effects regression models. These models account for the fact that each animal was measured at multiple time points. A separate model was fit for each comparison, and the areas under the curve (AUC) for each treatment group were calculated using the predicted values from the model. The percent decrease in AUC (dAUC) relative to the reference group was then calculated. […] Further details regarding pairwise comparisons are provided in the Example 2.
(§3) Drug combinations were assessed for synergy using observed AUC values. The change in AUC relative to the control was calculated for both single agent treatment groups as well as the combination group. The interaction between the two compounds was then assessed by comparing the change in AUC observed in the combination group to the sum of the changes observed in both single agents. The results can be divided into four categories: synergistic, additive, sub-additive, and antagonistic. Further details regarding combination analyses are provided in the Example 2.
(§4) Once a final analysis was selected, the tumor measurements observed on a date pre-specified by the researcher (typically the last day of treatment) were analyzed to assess tumor growth inhibition. For this analysis, a T/C ratio was calculated for each animal by dividing the tumor measurement for the given animal by the mean tumor measurement across all control animals. The T/C ratios across a treatment group were compared to the T/C ratios of the control group using a two-tailed Welch's t-test.

TMD8 DLBCL xenografts [3] = assay: Antitumor activity in CB17 SCID mice bearing TMD8 DLBCL xenografts, ABT-199 or gemcitabine combination (Example 9); type: in vivo, mouse; settings: Day 14, alone or combined with Compound A
Protocol: Tumor growth inhibition was calculated on Day 14 of the study. The last measurement was taken on Day 29 of the study.
as §1, with “about 19” for “20”, “5.0×10^6 TMD8” for “4.0×10^6 OCI-Ly10”, “cells. Tumor growth was monitored with vernier calipers.” for “cells.”, “245” for “199”, “14” for “21”
as §2, §3, §4

[4] = system: Ly19 human lymphoma xenografts; assay: Antitumor activity in SCID mice bearing Ly19 xenografts, rituximab combination (Example 14); type: in vivo, mouse; settings: alone or combined
[5] = Body weight and tolerability, A20 study (Example 1); type: in vivo, mouse; settings: Compound A 60 mg/kg PO QD 21 d, anti-PD-1 10 mg/kg IP Q4D x3, alone or combined
[6] = Body weight and tolerability, TMD8 gemcitabine study (Example 8); type: in vivo, mouse; settings: alone or combined
Protocol: as §1, with “19” for “20”, “5.0×10^6 TMD8” for “4.0×10^6 OCI-Ly10”, “cells. Tumor growth was monitored with vernier calipers.” for “cells.”, “215” for “199”, “into” for “into 6”, “14” for “21”

[7] = Body weight and tolerability, TMD8 ABT-199/gemcitabine study (Example 9); type: in vivo, mouse; settings: alone or combined with Compound A
Protocol: as §1, with “about 19” for “20”, “5.0×10^6 TMD8” for “4.0×10^6 OCI-Ly10”, “cells. Tumor growth was monitored with vernier calipers.” for “cells.”, “245” for “199”, “14” for “21”

[8] = Body weight and tolerability, WSU-Luc ibrutinib study (Example 12); type: in vivo, mouse; settings: alone or combined
Protocol: Tumor growth was monitored with vernier calipers. Tumor volume was calculated using the formula V=W^2×L/2, where V=volume, W=width and L=length of the tumor. When the mean tumor volume reached approximately 190 mm^3, the animals were randomized into treatment groups (n=8/group). […] Tumor growth and body weight were measured twice per week. Tumor growth inhibition and body weight change were calculated on Day 20 of treatment.

sensitive cell systems = assay: Activity in sensitive cell systems; type: cell-based
[9] = Clinical activity in a recent study (response-evaluable subjects); type: in vivo; settings: 3 DLBCL PR, 1 FL CR, 2 FL SD
[10] = mouse, in vivo, po, 60 mg/kg
[11] = Compound A 60 mg/kg PO QD, anti-PD-1 10 mg/kg IP Q4D x3, alone or combined, Day 19
[12] = Day 14, Compound A 60 mg/kg PO QD x14, bendamustine 1.0 mg/kg IV BIW x2
[13] = Compound A 60 mg/kg PO QD, gemcitabine 2.5 mg/kg IP Q3D
[14] = Compound A 60 mg/kg, ABT-199 25 mg/kg, gemcitabine 5 mg/kg
[15] = Day 14, Compound A 60 mg/kg PO QD x14, rituximab 10 mg/kg IV QW x2

Cn1cc(-c2nc(N[C@@H]3CCCC[C@@H]3N)c(F)c3c2C(=O)NC3)cn1 [Compound A, 6-((1R,2S)-2-aminocyclohexylamino)-7-fluoro-4-(1-methyl-1H-pyrazol-4-yl)-1H-pyrrolo[3,4-c]pyridine-3 (2H)-one citrate]
Mean Tumor Volume (mm^3) ± SEM ([1]; Compound A 60 mg/kg PO QD 21 d, anti-PD-1 10 mg/kg IP Q4D x3, alone or combined, Day 19): 1,582.9 ± 317.2 mm^3 | T/C [1, 11]: 0.85 | TGI (%) [1, 11]: 15.3% | dAUC (percent decrease in AUC, pairwise comparison) ([1]; reference 0.5% methylcellulose, Compound A 60 mg/kg, anti-PD-1 10 mg/kg, days >19 excluded): 10.2 | Mean Tumor Volume (mm^3) ± SEM (TMD8 DLBCL xenografts [2]; Compound A 60 mg/kg PO QD 14 d): 1,085.5 ± 173.3 mm^3 | T/C (TMD8 DLBCL xenografts [2]; Compound A 60 mg/kg PO QD): 0.61 | TGI (%) (TMD8 DLBCL xenografts [2]; Compound A 60 mg/kg PO QD): 38.5% | Mean Tumor Volume (mm^3) ± SEM at Day 14 (Ly19 xenografts; [12]): 1683.9 ± 167.1 mm^3 | TGI (%) (Ly19 xenografts; [12]): 32.6% | dAUC (Ly19 xenografts; vs vehicle, Compound A 60 mg/kg, bendamustine 1.0 mg/kg): 18.8 | Mean Tumor Volume (mm^3) ± SEM (OCI-LY10 xenografts; [13]): 409.4 ± 55.2 mm^3 | TGI (%) (OCI-LY10 xenografts; [13]): 65.5% | T/C (OCI-LY10 xenografts; Compound A 60 mg/kg, gemcitabine 2.5 mg/kg): 0.35 | TGI (%) (TMD8 DLBCL xenografts [3]; Compound A 60 mg/kg PO QD, ABT-199 25 mg/kg PO QD, gemcitabine 5 mg/kg IP Q3D x4): 25.7% | Mean Tumor Volume (mm^3) ± SEM (TMD8 DLBCL xenografts [3]; [14]): 1,100.2 ± 134.5 mm^3 | T/C (TMD8 DLBCL xenografts [3]; [14]): 0.74 | Mean Tumor Volume (mm^3) ± SEM at Day 14 [4, 15]: 1594.0 ± 115.6 mm^3 | TGI (%) [4, 15]: 36.6% | dAUC ([4]; vs vehicle, Compound A 60 mg/kg, rituximab 10 mg/kg): 11.5 | Number of animals removed [5]: 1 | % BW Change (Day Maximum) ([5]; maximum change within treatment period, citrate): 15.8% and 15.8 (19) % | % BW Change (Day Maximum) ([6]; Compound A 60 mg/kg PO QD 14 d, gemcitabine 5 mg/kg IP Q3D x4): 6.4 (12) % | Number of animals removed ([6]; Compound A 60 mg/kg, gemcitabine 5 mg/kg): 0 | % BW Change (Day Maximum) ([7]; Compound A 60 mg/kg PO QD 14 d, ABT-199 25 mg/kg PO QD 14 d, gemcitabine 5 mg/kg IP Q3D x4): 7.9 (14) % | Number of animals removed [7, 14]: 0 | % BW Change (Day Maximum) ([8]; Compound A 60 mg/kg PO QD 21 d, ibrutinib 20 mg/kg PO QD 21 d): 11.6 (20) % | Number of animals removed ([8]; Compound A 60 mg/kg, ibrutinib 20 mg/kg): 0 | EC50 (sensitive cell systems): 0.025 to 0.4 µM | response-evaluable subjects who responded to treatment [9]: 6 of the 20 | increase in mean body weight on Day 14 compared to Day 0 [10]: 1.6 g
